Active and inactive are the calls of the source. The rule behind the calls is not given here.
How the values were obtained:
[1] = target: Cathepsin B (Homo sapiens) (UniProt P07858); assay: Inhibition of cathepsin B (unknown origin) at 6.3 uM after 20 mins by fluorometric analysis
[2] = target: T1, Ubiquitin carboxyl-terminal hydrolase 2 (Homo sapiens) (UniProt O75604); assay: Inhibition of human USP2 using Ub-AMC as substrate at 1 to 30 uM after 60 mins by fluorometric analysis
T1 sequence (whole entry): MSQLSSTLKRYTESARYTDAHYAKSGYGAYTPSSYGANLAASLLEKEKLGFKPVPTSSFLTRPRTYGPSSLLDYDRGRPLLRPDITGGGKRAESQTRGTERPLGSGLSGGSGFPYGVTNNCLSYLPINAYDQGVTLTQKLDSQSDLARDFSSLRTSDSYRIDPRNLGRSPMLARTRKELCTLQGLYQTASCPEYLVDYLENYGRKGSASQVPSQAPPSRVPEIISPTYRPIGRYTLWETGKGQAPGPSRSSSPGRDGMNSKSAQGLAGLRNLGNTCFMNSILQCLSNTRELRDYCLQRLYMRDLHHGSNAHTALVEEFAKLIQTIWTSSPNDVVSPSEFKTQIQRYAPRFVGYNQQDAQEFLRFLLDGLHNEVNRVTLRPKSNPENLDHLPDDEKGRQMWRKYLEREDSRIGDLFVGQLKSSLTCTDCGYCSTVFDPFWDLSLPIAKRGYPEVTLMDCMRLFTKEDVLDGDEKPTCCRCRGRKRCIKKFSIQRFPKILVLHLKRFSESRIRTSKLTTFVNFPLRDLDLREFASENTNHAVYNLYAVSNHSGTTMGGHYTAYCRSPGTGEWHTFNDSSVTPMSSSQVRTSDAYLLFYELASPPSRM

[3] = target: T2, Ubiquitin carboxyl-terminal hydrolase 5 (Homo sapiens, UniProt P45974); assay: Competitive inhibition of wild type human USP5 expressed in Escherichia coli BL21(DE3) using Ub-AMC as substrate
T2 sequence (P45974 whole entry): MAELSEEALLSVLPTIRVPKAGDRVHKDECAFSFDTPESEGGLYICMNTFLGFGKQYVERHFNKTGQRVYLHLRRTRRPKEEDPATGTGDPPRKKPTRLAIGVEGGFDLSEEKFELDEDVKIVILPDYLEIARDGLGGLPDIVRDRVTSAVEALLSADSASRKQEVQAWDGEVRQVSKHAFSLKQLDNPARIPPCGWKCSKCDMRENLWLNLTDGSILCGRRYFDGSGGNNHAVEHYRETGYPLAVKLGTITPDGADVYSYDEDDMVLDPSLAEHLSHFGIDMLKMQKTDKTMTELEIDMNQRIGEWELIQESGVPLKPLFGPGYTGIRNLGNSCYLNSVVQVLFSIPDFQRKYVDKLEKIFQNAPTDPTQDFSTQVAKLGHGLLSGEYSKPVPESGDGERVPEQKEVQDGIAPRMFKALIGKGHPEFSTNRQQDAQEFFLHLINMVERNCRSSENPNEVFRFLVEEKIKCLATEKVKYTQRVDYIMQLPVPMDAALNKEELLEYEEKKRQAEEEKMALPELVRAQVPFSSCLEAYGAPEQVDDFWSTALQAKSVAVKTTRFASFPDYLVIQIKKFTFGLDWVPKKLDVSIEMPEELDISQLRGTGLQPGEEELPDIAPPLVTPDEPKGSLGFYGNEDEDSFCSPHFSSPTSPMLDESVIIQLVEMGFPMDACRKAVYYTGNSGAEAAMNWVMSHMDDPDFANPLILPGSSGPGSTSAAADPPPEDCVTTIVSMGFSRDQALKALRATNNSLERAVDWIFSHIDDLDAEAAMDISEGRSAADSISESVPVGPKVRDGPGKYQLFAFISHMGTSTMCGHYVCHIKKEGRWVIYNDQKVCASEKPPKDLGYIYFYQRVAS

[4] = target: T3, Ubiquitin carboxyl-terminal hydrolase 4 (Homo sapiens, UniProt Q13107); assay: Inhibition of human USP4 using Ub-AMC as substrate after 60 mins by fluorometric analysis
T3 sequence (Q13107 whole entry): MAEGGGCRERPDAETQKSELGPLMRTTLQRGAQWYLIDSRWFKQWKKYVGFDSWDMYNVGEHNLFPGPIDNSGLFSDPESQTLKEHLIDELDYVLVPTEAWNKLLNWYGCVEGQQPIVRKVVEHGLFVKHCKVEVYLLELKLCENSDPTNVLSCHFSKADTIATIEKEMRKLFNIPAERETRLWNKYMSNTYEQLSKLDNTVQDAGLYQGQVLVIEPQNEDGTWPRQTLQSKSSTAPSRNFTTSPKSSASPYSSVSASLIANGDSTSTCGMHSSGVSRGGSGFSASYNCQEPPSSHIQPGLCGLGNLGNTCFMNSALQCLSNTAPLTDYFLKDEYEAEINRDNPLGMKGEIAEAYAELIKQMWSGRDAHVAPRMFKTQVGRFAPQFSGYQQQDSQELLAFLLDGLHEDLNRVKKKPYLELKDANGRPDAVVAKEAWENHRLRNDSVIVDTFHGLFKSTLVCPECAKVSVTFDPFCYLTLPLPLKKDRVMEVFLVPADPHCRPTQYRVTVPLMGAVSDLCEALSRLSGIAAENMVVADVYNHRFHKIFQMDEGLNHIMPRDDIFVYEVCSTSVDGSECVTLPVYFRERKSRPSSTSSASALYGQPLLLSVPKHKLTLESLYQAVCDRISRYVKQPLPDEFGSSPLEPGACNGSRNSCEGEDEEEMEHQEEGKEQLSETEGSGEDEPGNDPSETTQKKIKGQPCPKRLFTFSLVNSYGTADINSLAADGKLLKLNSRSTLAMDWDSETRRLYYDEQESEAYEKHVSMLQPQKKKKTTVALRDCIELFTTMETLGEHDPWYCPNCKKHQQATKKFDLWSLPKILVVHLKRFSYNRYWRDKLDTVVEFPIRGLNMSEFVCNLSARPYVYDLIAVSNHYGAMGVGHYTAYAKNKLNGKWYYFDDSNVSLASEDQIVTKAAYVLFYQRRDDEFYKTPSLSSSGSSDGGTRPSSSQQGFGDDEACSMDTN

[5] = target: T2, Ubiquitin carboxyl-terminal hydrolase 5; assay: Inhibition of wild type human USP5 expressed in Escherichia coli BL21(DE3) using Ub-AMC as substrate after 60 mins by fluorometric analysis
[6] = target: T4, Ubiquitin carboxyl-terminal hydrolase 5 (Homo sapiens) (UniProt P45974); assay: Competitive binding affinity to human recombinant USP5 after 1 hr by SDS-PAGE analysis in presence of biotin-DMT
T4 sequence (whole entry): T2 sequence (P45974 whole entry)

RBL-2H3 = assay: Binding affinity to USP5 in rat RBL2H3 cell extracts at 10 to 40 uM by SDS-PAGE analysis

O=C(Cc1ccccc1)Oc1c(OC(=O)Cc2ccccc2)c(-c2ccc(O)cc2)c(O)c(O)c1-c1ccc(O)cc1 [VIALININ A]
inhibition [1]: inactive
inhibition [2]: inactive
Ki [3]: 12.5 µM
IC50 [4]: 1.5 µM
IC50 [5]: 5.9 µM
Ki [5]: 4 µM
Activity [6]: Active
Activity (RBL-2H3): inactive
